{"source": "patent US20230390297A1", "about": "“USE OF NUCLEOTIDE SYNTHESIS INHIBITORS FOR TARGETED THERAPY IN MLL3/4 COMPASS MUTANT CANCER” (priority 2022, published 2023)", "key": {"WT and Mll3/4 KO mESCs": {"test_system": "WT and Mll3/4 KO mESCs", "assay": "RNA-seq of WT and Mll3/4 KO mESCs treated with LTX -/+ HPX", "assay_type": "cell-based, mouse", "details": "48 hours", "procedure": "FIG. 3. […] (A) WT and Mll3/4 KO cells were treated with 0-2.5 μM lometrexol (LTX)−/+50 hypoxanthine (HPX) for 48 hours. CellTiter-Glo® luminescent cell viability assay was performed to determine the percentage of inhibition under these conditions. (B) WT and KO cells were treated with 0.3 μM LTX−/+50 μM HPX for 48 hours, and cells were harvested for RNA-seq. Differential gene expression analyses were performed with indicated comparisons. (C) Principal component analysis of RNA-seq in (B). (D) Hierarchical clustering heatmap showing differentially expressed genes in KO cells in comparison with WT cells.\nFIG. 10. Mll3/4 KO mESCs are more sensitive to purine synthesis inhibition. (A-B) WT and Mll3/4 KO cells were treated with 0-2.5 μM lometrexol (LTX) (A) or 0-5 methotrexate (MTX) (B) for 48 hours. CellTiter-Glo® luminescent cell viability assay was performed to determine the percentage of inhibition under these conditions with three different Mll3/4 KO clones included. (C) WT and Mll3/4 KO cells were treated with 0-40 μM SHIINI for 48 hours. MTT cell viability assay was performed to determine the percentage of inhibition under these conditions with three different Mll3/4 KO clones included.\nGene count tables were constructed using HTseq (56) with Ensembl gene annotations and used as input for edgeR 3.0.8 (57). Genes with Benjamini-Hochburg adjusted p-values less than were differentially expressed. Batch effects were removed using ComB at-seq on the raw read counts (58). Pathway analysis was performed with Metascape (59)."}, "[1]": {"test_system": "HCT116 sc xenografts (MLL4 mutant)", "assay": "HCT116 subcutaneous xenograft in nude mice", "assay_type": "in vivo", "procedure": "FIG. 6. Inhibition of de novo purine synthesis by lometrexol inhibits MLL4 mutant tumor growth. Tumor development after inoculation of 4×10^6 of HCT116 cells into the nude mice. Mice with HCT116 subcutaneous (sc) tumor were either treated with vehicle (DMSO, n=9) or LTX (25 mg/kg, n=9) daily for 7 days. (A) Growth plots for sc tumors in each treatment group were shown. Tumor volumes (mm3) show mean and upper SD. (B) Dot plot representation of sc tumor volume in mice at day 12 post-tumor cell injection. Unpaired t-test values for comparisons between DMSO and LTX treatment: ****, P<0.0001. (C) Photographs of nude mice (left) and sc tumor taken from these mice (right) in which HCT116 cells were inoculated into the right flank. (D) Animal survival at the indicated days after inoculation. Log-rank test was used for comparisons between DMSO and LTX treatment: ****, P<0.0001. (E) H&E staining and immunohistochemistry showing the proliferation and apoptosis in tumors with Ki-67 and TUNEL staining. The signals for Ki-67 and TUNEL are quantified and shown in the bar plots on the right.\nFIG. 20. Lometrexol application in MLL4 mutant tumors in the xenograft mouse models. (A-D) Tumor development after inoculation of 4×10^6 of HT55 cells into the nude mice. Mice with HT55 subcutaneous (sc) tumor were either treated with vehicle (DMSO, n=9) or LTX (15 mg/kg, n=9) daily for 7 days. (A) Growth plots for sc tumors in each treatment group were shown. Tumor volumes (mm3) show mean and upper SD. (B) Dot plot representation of sc tumor volume in mice at day 18 post-tumor cell injection. […] (C) Photographs of nude mice (upper) and sc tumor taken from these mice (lower) in which HT55 cells were inoculated into the right flank. (D) Animal survival at the indicated days after inoculation. Log-rank test was used for comparisons between DMSO and LTX treatment. (E-H) Tumor development after inoculation of 4×10^6 of HCT116 cells into the nude mice. Mice with HCT116 subcutaneous (sc) tumor were either treated with vehicle (DMSO, n=9) or LTX (15 mg/kg, n=9) daily for 7 days. (E) Growth plots for sc tumors in each treatment group were shown. Tumor volumes (mm3) show mean and upper SD. (F) Dot plot representation of sc tumor volume in mice at day 12 post-tumor cell injection. Unpaired t-test values for comparisons between DMSO and LTX treatment: ***, P<0.001. (G) Photographs of nude mice (upper) and sc tumor taken from these mice (lower) in which HCT116 cells were inoculated into the right flank. (H) Animal survival at the indicated days after inoculation. Log-rank test was used for comparisons between DMSO and LTX treatment: ***, P<0.001.\nSix-week-old female athymic mice (nu/nu genotype, BALB/c background) were purchased from Envigo (Indianapolis, IN, USA) and housed under aseptic conditions. HT55 or HCT116 cells were implanted into the flank of athymic mice as previously described (65). Briefly, 4×10^6 cells, in 0.4 ml of cell culture media with matrigel (BD Bioscience) at 1:1 ratio, were injected in the right flank of mice under anesthetization by isoflurane. […] The tumor sizes were measured on alternate days and the mice were euthanized when the tumor size reached 1000 mm^3. […]\nFor in vivo study, the Kaplan-Meier estimator and Prism software were used to generate and analyze survival plots. Differences between survival plots were calculated using a log-rank test. […]"}, "[2]": {"test_system": "BBN induced bladder cancer, MLL4 mutant tumors", "assay": "BBN induced bladder cancer mouse model", "assay_type": "in vivo, C57BL/6J male mice", "details": "15 mg/kg intraperitoneal twice a week for 12 weeks; Fisher's exact test, p=0.037", "description": "N-butyl-N-(4-hydroxybutyl)-nitrosamine (BBN) is a carcinogen, that mimics the tobacco use in human. When administered to C57/B6 male mice in drinking water for at least 20 weeks, causes muscle invasive bladder tumors (MIBC) (1). Besides, 70% of Kmt2d/MLL4 is mutated in BBN mouse model, mimicking high MLL4 mutation rate (and low UTX mutation rate) found in […] (1, 2). Thus, we believe that this is a valuable system where we could examine the effect of lometrexol in bladder cancer based on the MLL4 mutation stratification.\nExperiment design: Thirty 7-week-old C57BL/6J male mice were used in our study to induce bladder cancer by feeding them with 0.1% BBN containing water for 6 weeks. The mice were then randomized into two groups: DMSO (n=15) or lometrexol treatment (n=15) and were given intraperitoneal injections of the respective treatments twice a week at a dose of 15 mg/kg for 12 weeks. At the end of the treatment period, the bladder tissues of the mice were harvested for H&E staining and RNA isolation. Each mouse's tumor grade was assessed, and RNA samples were analyzed for mutations in the kmt2d/MLL4 gene through mRNA-seq. Finally, we compared the MLL4 genotype and treatment to the tumor stage to assess the effectiveness of the treatment."}, "[3]": {"details": "LTX 25 mg/kg daily for 7 days vs DMSO"}}}
{"smiles": "Nc1nc2c(c(=O)[nH]1)C[C@@H](CCc1ccc(C(=O)N[C@@H](CCC(=O)O)C(=O)O)cc1)CN2", "note": "[lometrexol, (2S)-2-[[4-[2-[(6R)-2-amino-4-oxo-5,6,7,8-tetrahydro-3H-pyrido[2,3-d]pyrimidin-6-yl]ethyl]benzoyl]amino]pentanedioic acid]", "values": [{"measurement": "gene expression change in WT and Mll3/4 KO cells", "setting": "WT and Mll3/4 KO mESCs; 0.3 μM LTX or 50 μM HPX alone, LTX effect almost completely rescued by HPX", "result": "induced significant gene expression change"}, {"measurement": "genes commonly downregulated in WT and KO cells", "setting": "WT and Mll3/4 KO mESCs; 0.3 μM LTX", "result": 1063, "unit": "genes"}, {"measurement": "genes commonly upregulated in WT and KO cells", "setting": "WT and Mll3/4 KO mESCs; 0.3 μM LTX", "result": 1195, "unit": "genes"}, {"measurement": "tumor growth at lower dose", "setting": "[1]; LTX 15 mg/kg daily for 7 days vs DMSO, tumor volume day 12 P<0.001, survival P<0.001", "result": "maintained the sensitivity to LTX at a lower dose"}, {"measurement": "apoptosis in tumors (TUNEL)", "setting": "[1]; [3]", "result": "enhanced apoptosis"}, {"measurement": "cell proliferation in tumors (Ki-67)", "setting": "[1]; [3]", "result": "significantly decreased"}, {"measurement": "subcutaneous tumor growth (tumor volume)", "setting": "[1]; LTX 25 mg/kg intraperitoneally daily for 7 days vs DMSO, P<0.0001", "result": "significantly inhibited the subcutaneous (sc) tumor growth"}, {"measurement": "survival of recipient mice", "setting": "[1]; LTX 25 mg/kg intraperitoneally daily for 7 days vs DMSO, log-rank P<0.0001", "result": "extend the survival of recipient mice"}, {"measurement": "tumor stage of mice with MLL4 mutant tumors compared with other groups", "setting": "[2]", "result": "significant lowered tumor stages"}]}
